Results published in patent publication US10201531B2, “Indazolyl-oxo-isothiazole compounds” (MOCHIDA PHARMACEUTICAL CO., LTD., priority 2015, dated 2019).

System: Nrf2
Assay: Evaluation of Nrf2 activation ability (Nrf2d-LacZ / Keap1 HEK293 reporter, Beta-Glo luminescence)
Type: cell-based, human
Details: rated A/B/C, Pharmacological Test Example 1
Method: HEK293 cells constantly expressing Nrf2d-LacZ (human Nrf2 degron region fused to LacZ; Hirotsu et al, Genes to Cell, Vol. 16, pp. 406-415 (2011)) and human Keap1 were seeded 7,000 cells/27 μl/well on 384-well plates (Corning 384 Well Flat Clear Bottom White Polystyrene TC-Treated Microplates, Cat. #3707), and cultured overnight at 5% CO2, 37° C. in DMEM medium containing 10% FBS, 100 U/mL penicillin and 100 μg/mL streptomycin. 3 μL/well of a 0.1% DMSO solution of the compound of the invention was added to the cells, which were then cultured for 3 hours at 5% CO2, 37° C. Beta-Glo® reagent (Promega, Beta-Glo Assay System, Cat. #E4740) was added 15 μL/well and incubated for 1 hour at room temperature, and luminescence intensity was measured with a luminometer. Using CDDO-Im as a standard, Nrf2 activation ability was calculated given 100% as the luminescence under stimulus with 100 nM CDDO-Im.

Row | Structure (SMILES) | EC50
1 | O=C(c1ccccc1)N1CCC(c2ccc3c(cnn3-c3cc(O)n[s+]3[O-])c2)CC1 (centres unmarked) [Example 168] | 5000 to 10000 nM
2 | CN1CCOc2cc(-c3ccc4c(c3)c(Cl)nn4-c3cc(O)n[s+]3[O-])cnc21 (centres unmarked) [Example 169] | < 1000 nM
3 | CN(C(=O)N1CCC(c2ccc3c(cnn3-c3cc(O)n[s+]3[O-])c2)CC1)c1ccccc1 (centres unmarked) [Example 170] | 1000 to 5000 nM
4 | Cn1cc(-c2ccc3c(cnn3-c3cc(O)n[s+]3[O-])c2)ccc1=O (centres unmarked) [Example 171] | 5000 to 10000 nM
5 | COCCN1CCOc2cc(-c3ccc4c(cnn4-c4cc(O)n[s+]4[O-])c3)cnc21 (centres unmarked) [Example 172] | < 1000 nM
6 | COc1cc(-c2ccc3c(cnn3-c3cc(O)n[s+]3[O-])c2)cnc1N(C)C (centres unmarked) [Example 173] | < 1000 nM
7 | COc1cc(-c2cnc3c(c2)OCCN3C)c2cnn(-c3cc(O)n[s+]3[O-])c2c1 (centres unmarked) [Example 174] | 1000 to 5000 nM
8 | COc1cc(-c2ccc(N3CCCC3)nc2)c2cnn(-c3cc(O)n[s+]3[O-])c2c1 (centres unmarked) [Example 175] | < 1000 nM
9 | COc1cc(-c2ccnc(N3CCCCC3)c2)c2cnn(-c3cc(O)n[s+]3[O-])c2c1 (centres unmarked) [Example 176] | 1000 to 5000 nM
10 | COc1cc(Br)cc2c1cnn2-c1cc(O)n[s+]1[O-] (centres unmarked) [Example 177] | < 1000 nM
11 | CN1CCOc2ccc(-c3ccc4c(cnn4-c4cc(O)n[s+]4[O-])c3)nc21 (centres unmarked) [Example 178] | < 1000 nM
12 | CN1CCOc2nc(-c3ccc4c(cnn4-c4cc(O)n[s+]4[O-])c3)ccc21 (centres unmarked) [Example 179] | < 1000 nM
13 | COc1cc(-c2ccc(N3CCCCC3)nc2)c2cnn(-c3cc(O)n[s+]3[O-])c2c1 (centres unmarked) [Example 180] | < 1000 nM
14 | COc1cc(-c2ccnc(N3CCCC3)c2)c2cnn(-c3cc(O)n[s+]3[O-])c2c1 (centres unmarked) [Example 181] | 1000 to 5000 nM
15 | [O-][s+]1nc(O)cc1-n1ncc2cc(-c3ccc(N4CCC(F)(F)C4)nc3)ccc21 (centres unmarked) [Example 182] | < 1000 nM
16 | COc1cc(C2CC2)c2cnn(-c3cc(O)n[s+]3[O-])c2c1 (centres unmarked) [Example 183] | 1000 to 5000 nM
17 | CN1CCOc2cc(-c3ccc4c(cnn4-c4cc(O)n[s+]4[O-])c3)c(C#N)nc21 (centres unmarked) [Example 184] | < 1000 nM
18 | Cc1nc2c(cc1-c1ccc3c(cnn3-c3cc(O)n[s+]3[O-])c1)OCCN2C (centres unmarked) [Example 185] | < 1000 nM
19 | O=C1CCCN1c1ccc(-c2ccc3c(cnn3-c3cc(O)n[s+]3[O-])c2)cn1 (centres unmarked) [Example 186] | < 1000 nM
20 | CN1C(=O)C(C)(C)Oc2cc(-c3ccc4c(cnn4-c4cc(O)n[s+]4[O-])c3)cnc21 (centres unmarked) [Example 187] | < 1000 nM
21 | CN1CC(C)(C)Oc2cc(-c3ccc4c(cnn4-c4cc(O)n[s+]4[O-])c3)cnc21 (centres unmarked) [Example 188] | < 1000 nM
22 | CC1(C)CNc2ncc(-c3ccc4c(cnn4-c4cc(O)n[s+]4[O-])c3)cc2O1 (centres unmarked) [Example 189] | < 1000 nM
23 | [O-][s+]1nc(O)cc1-n1ncc2cc(-c3cnc4c(c3)OCCCN4)ccc21 (centres unmarked) [Example 190] | < 1000 nM
24 | COc1cccc2c1cnn2-c1cc(O)n[s+]1[O-] (centres unmarked) [Example 191] | 1000 to 5000 nM
25 | COc1cc(-c2cnc3c(c2)OCCN3C)cc2c1cnn2-c1cc(O)n[s+]1[O-] (centres unmarked) [Example 192] | < 1000 nM
26 | COc1cc(-c2ccc(N3CCCC3)nc2)cc2c1cnn2-c1cc(O)n[s+]1[O-] (centres unmarked) [Example 193] | < 1000 nM
27 | COc1cc(-c2ccnc(N3CCCC3)c2)cc2c1cnn2-c1cc(O)n[s+]1[O-] (centres unmarked) [Example 194] | < 1000 nM

Row | Structure (SMILES) | EC50
28 | COc1cc(-c2cncc(C)c2)cc2c1cnn2-c1cc(O)n[s+]1[O-] (centres unmarked) [Example 195] | 1000 to 5000 nM
29 | COc1cc(C)c2cnn(-c3cc(O)n[s+]3[O-])c2c1 (centres unmarked) [Example 196] | 1000 to 5000 nM
30 | CN1C(=O)COc2cc(-c3ccc4c(cnn4-c4cc(O)n[s+]4[O-])c3)cnc21 (centres unmarked) [Example 197] | < 1000 nM
31 | COCC1CCCN1c1ccc(-c2ccc3c(cnn3-c3cc(O)n[s+]3[O-])c2)cn1 (centres unmarked) [Example 198] | < 1000 nM
32 | COc1cc(-c2cccnc2)cc2c1cnn2-c1cc(O)n[s+]1[O-] (centres unmarked) [Example 199] | 1000 to 5000 nM
33 | COc1cc(-c2ccncc2)cc2c1cnn2-c1cc(O)n[s+]1[O-] (centres unmarked) [Example 200] | 1000 to 5000 nM
34 | COc1cc(-c2cc(OC)c3cnn(-c4cc(O)n[s+]4[O-])c3c2)ccn1 (centres unmarked) [Example 201] | < 1000 nM
35 | COc1cc(-c2ccc(C3CC3)nc2)cc2c1cnn2-c1cc(O)n[s+]1[O-] (centres unmarked) [Example 203] | < 1000 nM
36 | CN1CCOc2cc(-c3ccc4c(cnn4-c4cc(O)n[s+]4[O-])c3)c(C(F)F)nc21 (centres unmarked) [Example 204] | < 1000 nM
37 | CN1CCCCOc2cc(-c3ccc4c(cnn4-c4cc(O)n[s+]4[O-])c3)cnc21 (centres unmarked) [Example 205] | < 1000 nM
38 | [O-][s+]1nc(O)cc1-n1ncc2cc(-c3cnc4c(c3)OCCCCN4)ccc21 (centres unmarked) [Example 206] | < 1000 nM
39 | COc1c(Br)ccc2c1cnn2-c1cc(O)n[s+]1[O-] (centres unmarked) [Example 207] | < 1000 nM
40 | CN1CCCOc2cc(-c3ccc4c(cnn4-c4cc(O)n[s+]4[O-])c3)cnc21 (centres unmarked) [Example 209] | < 1000 nM
41 | CN1CCOc2nc(-c3ccc4c(cnn4-c4cc(O)n[s+]4[O-])c3)cnc21 (centres unmarked) [Example 210] | < 1000 nM
42 | COc1c(-c2cnc3c(c2)OCCN3C)ccc2c1cnn2-c1cc(O)n[s+]1[O-] (centres unmarked) [Example 211] | < 1000 nM
43 | [O-][s+]1nc(O)cc1-n1ncc2cc(-c3cnc4c(c3)OCC3CCCN43)ccc21 (centres unmarked) [Example 212] | < 1000 nM
44 | CN1c2ncc(-c3ccc4c(cnn4-c4cc(O)n[s+]4[O-])c3)cc2OCC1(C)C (centres unmarked) [Example 213] | < 1000 nM
45 | CN1CCOc2nc(-c3ccc4c(cnn4-c4cc(O)n[s+]4[O-])c3)ncc21 (centres unmarked) [Example 215] | < 1000 nM
46 | CN1CCOc2cc(-c3ccc4c(c3)c(C3CC3)nn4-c3cc(O)n[s+]3[O-])cnc21 (centres unmarked) [Example 216] | 1000 to 5000 nM
47 | CC1(C)COc2cc(-c3ccc4c(cnn4-c4cc(O)n[s+]4[O-])c3)cnc2N1 (centres unmarked) [Example 217] | < 1000 nM
48 | CN1C(=O)COc2nc(-c3ccc4c(cnn4-c4cc(O)n[s+]4[O-])c3)ncc21 (centres unmarked) [Example 218] | 1000 to 5000 nM
49 | [O-][s+]1nc(O)cc1-n1ncc2cc(-c3cc4c(cn3)NCCO4)ccc21 (centres unmarked) [Example 219] | < 1000 nM
50 | [O-][s+]1nc(O)cc1-n1ncc2cc(-c3cnc4c(c3)OCCO4)ccc21 (centres unmarked) [Example 220] | < 1000 nM
51 | CN1CCOc2cc(-c3ccc4c(c3)c(C#N)nn4-c3cc(O)n[s+]3[O-])cnc21 (centres unmarked) [Example 221] | 1000 to 5000 nM
52 | CN1CCOc2cc(-c3ccc4c(cnn4-c4cc(O)n[s+]4[O-])c3)ncc21 (centres unmarked) [Example 222] | < 1000 nM
53 | COc1nn(-c2cc(O)n[s+]2[O-])c2ccc(-c3cnc4c(c3)OCCN4C)cc12 (centres unmarked) [Example 223] | 1000 to 5000 nM
54 | Cn1nc(-c2ccc3c(cnn3-c3cc(O)n[s+]3[O-])c2)c2ccccc21 (centres unmarked) [Example 224] | < 1000 nM

Row | Structure (SMILES) | EC50
55 | [O-][s+]1nc(O)cc1-n1ncc2cc(-c3cnn4cccnc34)ccc21 (centres unmarked) [Example 225] | < 1000 nM
56 | Cn1ccc(-c2ccc3c(cnn3-c3cc(O)n[s+]3[O-])c2)n1 (centres unmarked) [Example 226] | < 1000 nM
57 | [O-][s+]1nc(O)cc1-n1ncc2nc(Cl)ccc21 (centres unmarked) [Example 227] | 1000 to 5000 nM
58 | Cc1cc2cnn(-c3cc(O)n[s+]3[O-])c2cn1 (centres unmarked) [Example 229] | 1000 to 5000 nM
59 | [O-][s+]1nc(O)cc1-n1ncc2ccncc21 (centres unmarked) [Example 231] | 5000 to 10000 nM
60 | [O-][s+]1nc(O)cc1-n1ncc2cc(-c3ccccc3)ncc21 (centres unmarked) [Example 233] | < 1000 nM
61 | [O-][s+]1nc(O)cc1-n1ncc2cc(Br)ncc21 (centres unmarked) [Example 234] | 1000 to 5000 nM
62 | [O-][s+]1nc(O)cc1-n1ncc2cc(-c3cccnc3)ncc21 (centres unmarked) [Example 235] | 1000 to 5000 nM
63 | [O-][s+]1nc(O)cc1-n1ncc2cc(C3=CCOCC3)ncc21 (centres unmarked) [Example 236] | 1000 to 5000 nM
64 | [O-][s+]1nc(O)cc1-n1ncc2cc(-c3ccc(C4CC4)nc3)ncc21 (centres unmarked) [Example 237] | < 1000 nM
65 | [O-][s+]1nc(O)cc1-n1ncc2cccnc21 (centres unmarked) [Example 238] | 1000 to 5000 nM
66 | [O-][s+]1nc(O)cc1-n1ncc2c3ccccc3ncc21 (centres unmarked) [Example 239] | < 1000 nM
67 | [O-][s+]1nc(O)cc1-n1ncc2nc(-c3ccc(N4CCCC4)nc3)ccc21 (centres unmarked) [Example 240] | 1000 to 5000 nM
68 | [O-][s+]1nc(O)cc1-n1ncc2nc(-c3ccc(N4CCCCC4)nc3)ccc21 (centres unmarked) [Example 241] | 1000 to 5000 nM
69 | COc1cc2cnn(-c3cc(O)n[s+]3[O-])c2cn1 (centres unmarked) [Example 242] | < 1000 nM
70 | CC(C)(C)OC(=O)N1CCc2cn(-c3cc(O)n[s+]3[O-])nc2CC1 (centres unmarked) [Example 244] | 1000 to 5000 nM
71 | CC(C)(C)OC(=O)N1Cc2cnn(-c3cc(O)n[s+]3[O-])c2C1 (centres unmarked) [Example 245] | 1000 to 5000 nM
72 | CC(C)(C)OC(=O)N1Cc2cn(-c3cc(O)n[s+]3[O-])nc2C1 (centres unmarked) [Example 246] | 1000 to 5000 nM
73 | CC(C)(C)OC(=O)N1CCc2c(cnn2-c2cc(O)n[s+]2[O-])C1 (centres unmarked) [Example 247] | 1000 to 5000 nM
74 | CC(C)(C)OC(=O)N1CCc2nn(-c3cc(O)n[s+]3[O-])cc2C1 (centres unmarked) [Example 248] | 1000 to 5000 nM
75 | CC(C)(C)OC(=O)N1CCCc2nn(-c3cc(O)n[s+]3[O-])cc2C1 (centres unmarked) [Example 250] | 1000 to 5000 nM
76 | CC(C)(C)OC(=O)N1CCc2c(c(I)nn2-c2cc(O)n[s+]2[O-])C1 (centres unmarked) [Example 251] | 5000 to 10000 nM
77 | [O-][s+]1nc(O)cc1-n1ncc2c1CCN(Cc1ccccc1)C2 (centres unmarked) [Example 252] | 1000 to 5000 nM
78 | COc1ccc(CN2CCc3c(cnn3-c3cc(O)n[s+]3[O-])C2)cn1 (centres unmarked) [Example 261] | 1000 to 5000 nM
79 | [O-][s+]1nc(O)cc1-n1ncc2c1CN(Cc1cnc3ccccc3c1)C2 (centres unmarked) [Example 263] | 1000 to 5000 nM
80 | [O-][s+]1nc(O)cc1-n1ncc2c1CN(Cc1cccc(Oc3ccccc3)c1)C2 (centres unmarked) [Example 264] | 1000 to 5000 nM
